Counter-ions that a name gives are not always drawn. Like-named read-outs stand apart in the source and are kept apart here.

Assay in all cases: Bead competition binding assay, immobilized compound A, K-562, HL-60 and Jurkat nuclear lysates
Common to all, as to details: 100 µM free compound A, read-out: Fold change versus DMSO control

One experiment concerns the target T1, EGLN1 (Homo sapiens, UniProt Q9GZT9).
T1 construct: endogenous in cells
The source says:
(§1) K562 cells were also purchased from DSMZ (Braunschweig, Germany).
(§2) Table 5: Peptide elution off the LC system

The target of the next experiment is T2, EGLN2 (Homo sapiens, UniProt Q96KS0).
T2 construct: capturing and identification of dioxygenases from nuclear lysates of three different cell lines; endogenous in cells; host or cells: K-562, HL-60 and Jurkat nuclear lysates
T2 sequence (Q96KS0 whole entry): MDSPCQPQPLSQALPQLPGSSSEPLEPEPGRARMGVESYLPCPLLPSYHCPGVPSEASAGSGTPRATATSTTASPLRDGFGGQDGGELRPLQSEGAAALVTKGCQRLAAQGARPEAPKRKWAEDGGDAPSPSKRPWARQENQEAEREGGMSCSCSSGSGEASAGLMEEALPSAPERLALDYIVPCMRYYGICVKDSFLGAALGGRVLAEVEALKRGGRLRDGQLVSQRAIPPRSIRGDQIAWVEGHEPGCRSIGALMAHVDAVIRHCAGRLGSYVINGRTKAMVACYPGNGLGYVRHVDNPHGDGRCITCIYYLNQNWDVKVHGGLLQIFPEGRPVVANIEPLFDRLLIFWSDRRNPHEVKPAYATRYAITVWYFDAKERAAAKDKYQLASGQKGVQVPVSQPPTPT
Excerpt: as §1, §2
(§3) Seventeen different dioxygenases were identified.

For a further experiment, the target named is T3, P4HA2 (Homo sapiens, UniProt O15460).
T3 construct: capturing and identification of dioxygenases from nuclear lysates of three different cell lines; endogenous in cells; host or cells: K-562, HL-60 and Jurkat nuclear lysates
T3 sequence (O15460 22-535): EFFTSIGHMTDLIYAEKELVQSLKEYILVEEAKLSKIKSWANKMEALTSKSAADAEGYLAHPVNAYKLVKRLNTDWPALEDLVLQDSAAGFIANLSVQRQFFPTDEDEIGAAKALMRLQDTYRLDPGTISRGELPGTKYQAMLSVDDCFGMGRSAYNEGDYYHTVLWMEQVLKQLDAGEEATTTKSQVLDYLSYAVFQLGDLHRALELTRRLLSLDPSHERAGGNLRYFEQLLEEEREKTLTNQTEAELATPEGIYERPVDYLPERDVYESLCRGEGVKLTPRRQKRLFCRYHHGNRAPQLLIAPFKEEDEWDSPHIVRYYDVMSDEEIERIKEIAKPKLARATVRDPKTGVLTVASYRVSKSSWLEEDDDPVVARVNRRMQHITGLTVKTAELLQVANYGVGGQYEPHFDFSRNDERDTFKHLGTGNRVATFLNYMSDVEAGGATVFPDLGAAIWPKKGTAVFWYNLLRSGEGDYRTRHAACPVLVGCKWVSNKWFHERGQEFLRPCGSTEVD
T3 sequence (P07237 18-508 partner): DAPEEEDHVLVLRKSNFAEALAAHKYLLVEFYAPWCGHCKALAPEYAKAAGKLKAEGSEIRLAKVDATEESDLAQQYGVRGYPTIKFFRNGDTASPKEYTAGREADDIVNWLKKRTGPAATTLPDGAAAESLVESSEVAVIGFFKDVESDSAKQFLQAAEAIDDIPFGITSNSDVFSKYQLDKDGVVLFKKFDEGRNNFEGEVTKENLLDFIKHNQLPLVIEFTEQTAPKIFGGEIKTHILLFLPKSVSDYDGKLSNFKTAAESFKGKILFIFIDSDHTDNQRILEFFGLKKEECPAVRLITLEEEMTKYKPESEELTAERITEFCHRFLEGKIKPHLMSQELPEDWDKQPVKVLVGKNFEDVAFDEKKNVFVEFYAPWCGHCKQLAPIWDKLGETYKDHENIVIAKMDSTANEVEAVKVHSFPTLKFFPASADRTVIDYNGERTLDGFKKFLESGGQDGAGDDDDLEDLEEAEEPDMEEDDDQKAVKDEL
Excerpt: as §1, §2, §3

In a further experiment the target is T4, TMLHE (Homo sapiens, UniProt Q9NVH6).
T4 construct: capturing and identification of dioxygenases from nuclear lysates of three different cell lines; endogenous in cells; host or cells: K-562, HL-60 and Jurkat nuclear lysates
T4 sequence (Q9NVH6 16-421): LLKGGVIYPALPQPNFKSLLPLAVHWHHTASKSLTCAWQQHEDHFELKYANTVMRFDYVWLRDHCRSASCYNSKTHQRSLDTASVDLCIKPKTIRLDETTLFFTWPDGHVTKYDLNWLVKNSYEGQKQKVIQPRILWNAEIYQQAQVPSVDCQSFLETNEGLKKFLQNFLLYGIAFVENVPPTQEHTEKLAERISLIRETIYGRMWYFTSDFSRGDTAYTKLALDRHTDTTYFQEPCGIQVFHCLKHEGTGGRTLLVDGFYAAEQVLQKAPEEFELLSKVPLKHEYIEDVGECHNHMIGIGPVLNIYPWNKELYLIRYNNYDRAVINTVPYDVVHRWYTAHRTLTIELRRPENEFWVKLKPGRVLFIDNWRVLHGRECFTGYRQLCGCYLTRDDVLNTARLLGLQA
Excerpt: as §1, §2, §3

The target of the next experiment is T5, ALKBH7 (Homo sapiens, UniProt Q9BT30).
T5 construct: capturing and identification of dioxygenases from nuclear lysates of three different cell lines; endogenous in cells; host or cells: K-562, HL-60 and Jurkat nuclear lysates
T5 sequence (Q9BT30 21-221): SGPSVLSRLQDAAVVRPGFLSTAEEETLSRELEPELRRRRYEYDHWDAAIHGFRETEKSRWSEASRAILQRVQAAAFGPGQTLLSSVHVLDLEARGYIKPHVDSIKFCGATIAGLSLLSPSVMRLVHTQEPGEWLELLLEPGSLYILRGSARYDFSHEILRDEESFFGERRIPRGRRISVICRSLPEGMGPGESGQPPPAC
Excerpt: as §1, §2, §3

A further experiment concerns the target T6, LEPRE1 (Homo sapiens, UniProt Q32P28).
T6 construct: capturing and identification of dioxygenases from nuclear protein extracts; endogenous in cells
T6 sequence (Q32P28 23-736): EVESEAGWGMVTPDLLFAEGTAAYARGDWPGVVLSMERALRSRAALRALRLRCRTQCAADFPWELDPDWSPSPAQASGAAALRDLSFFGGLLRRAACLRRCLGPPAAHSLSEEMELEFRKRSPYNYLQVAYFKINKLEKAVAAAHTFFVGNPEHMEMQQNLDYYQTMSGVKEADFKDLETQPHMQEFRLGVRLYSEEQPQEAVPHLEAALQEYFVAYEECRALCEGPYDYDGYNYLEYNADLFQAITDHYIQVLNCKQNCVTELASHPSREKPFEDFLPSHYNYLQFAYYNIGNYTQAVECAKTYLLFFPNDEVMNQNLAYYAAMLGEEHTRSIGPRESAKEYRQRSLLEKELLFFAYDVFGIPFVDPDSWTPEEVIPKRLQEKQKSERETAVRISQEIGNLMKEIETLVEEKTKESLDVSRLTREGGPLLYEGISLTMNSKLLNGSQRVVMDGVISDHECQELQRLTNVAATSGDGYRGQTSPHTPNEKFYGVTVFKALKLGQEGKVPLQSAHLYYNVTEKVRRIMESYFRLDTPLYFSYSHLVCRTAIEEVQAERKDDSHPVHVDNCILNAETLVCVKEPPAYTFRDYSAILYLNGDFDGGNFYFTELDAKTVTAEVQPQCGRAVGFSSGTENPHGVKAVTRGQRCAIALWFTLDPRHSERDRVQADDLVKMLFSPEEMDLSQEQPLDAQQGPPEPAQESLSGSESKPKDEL
Excerpt: as §1, §2, §3

In the next experiment the target is T7, OGFOD1 (Homo sapiens, UniProt Q8N543).
T7 construct: capturing and identification of dioxygenases from nuclear protein extracts; endogenous in cells
T7 sequence (Q8N543 whole entry): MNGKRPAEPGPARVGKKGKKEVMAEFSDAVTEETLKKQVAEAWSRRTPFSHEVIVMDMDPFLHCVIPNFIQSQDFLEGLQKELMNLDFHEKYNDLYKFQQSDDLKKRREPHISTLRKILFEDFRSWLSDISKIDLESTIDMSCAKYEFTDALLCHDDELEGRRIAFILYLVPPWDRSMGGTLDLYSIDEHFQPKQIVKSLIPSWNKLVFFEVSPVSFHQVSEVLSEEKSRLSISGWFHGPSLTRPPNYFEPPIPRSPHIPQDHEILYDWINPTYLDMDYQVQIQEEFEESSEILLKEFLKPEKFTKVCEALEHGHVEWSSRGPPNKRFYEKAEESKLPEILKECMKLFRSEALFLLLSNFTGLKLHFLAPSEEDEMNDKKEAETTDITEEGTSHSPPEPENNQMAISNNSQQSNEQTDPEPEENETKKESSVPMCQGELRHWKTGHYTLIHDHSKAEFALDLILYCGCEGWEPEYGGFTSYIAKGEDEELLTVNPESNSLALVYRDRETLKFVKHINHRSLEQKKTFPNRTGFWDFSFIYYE
Excerpt: as §1, §2, §3

The target in another experiment is T8, PLOD2 (Homo sapiens, UniProt O00469).
T8 construct: capturing and identification of dioxygenases from nuclear lysates of three different cell lines; endogenous in cells; host or cells: K-562, HL-60 and Jurkat nuclear lysates
T8 sequence (O00469 26-737): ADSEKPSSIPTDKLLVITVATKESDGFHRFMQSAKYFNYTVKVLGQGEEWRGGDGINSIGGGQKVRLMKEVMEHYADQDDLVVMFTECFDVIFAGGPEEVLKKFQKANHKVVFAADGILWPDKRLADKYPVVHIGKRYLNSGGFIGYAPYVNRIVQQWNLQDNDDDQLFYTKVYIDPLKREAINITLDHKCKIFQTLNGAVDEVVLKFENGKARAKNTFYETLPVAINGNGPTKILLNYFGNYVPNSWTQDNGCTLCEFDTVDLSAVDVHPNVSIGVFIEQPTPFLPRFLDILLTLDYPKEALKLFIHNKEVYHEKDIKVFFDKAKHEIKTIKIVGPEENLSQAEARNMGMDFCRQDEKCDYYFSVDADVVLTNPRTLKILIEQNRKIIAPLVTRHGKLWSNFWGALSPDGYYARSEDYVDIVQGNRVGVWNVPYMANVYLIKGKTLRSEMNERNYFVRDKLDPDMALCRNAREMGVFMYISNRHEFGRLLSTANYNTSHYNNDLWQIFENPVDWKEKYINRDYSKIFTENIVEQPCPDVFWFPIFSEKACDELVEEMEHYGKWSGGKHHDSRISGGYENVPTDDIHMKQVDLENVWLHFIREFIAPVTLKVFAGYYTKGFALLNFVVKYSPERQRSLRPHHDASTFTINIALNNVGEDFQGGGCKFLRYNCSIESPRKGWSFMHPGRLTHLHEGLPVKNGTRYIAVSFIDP
Excerpt: as §1, §2, §3

T1 sequence (Q9GZT9 whole entry): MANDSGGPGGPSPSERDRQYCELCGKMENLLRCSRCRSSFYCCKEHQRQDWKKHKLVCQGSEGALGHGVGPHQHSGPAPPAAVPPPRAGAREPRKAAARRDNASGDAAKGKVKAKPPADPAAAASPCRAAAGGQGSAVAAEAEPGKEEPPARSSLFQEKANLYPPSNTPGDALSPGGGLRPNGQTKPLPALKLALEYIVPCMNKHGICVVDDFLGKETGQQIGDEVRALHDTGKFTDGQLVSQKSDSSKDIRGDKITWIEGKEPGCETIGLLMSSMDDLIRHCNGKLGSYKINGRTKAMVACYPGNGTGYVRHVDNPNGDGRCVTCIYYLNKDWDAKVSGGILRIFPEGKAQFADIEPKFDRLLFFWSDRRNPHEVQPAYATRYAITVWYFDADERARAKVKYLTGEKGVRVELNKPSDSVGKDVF

With `O=C(O)CNC(=O)C1C(=O)OC2(CCNCC2)OC1=O` [compound A, 2-(2,4-dioxo-1,5-dioxa-9-azaspiro[5.5]undecane-3-carboxamido)acetic acid hydrochloride], the remaining binding at 100 µM was 24% at EGLN1 (HL-60 nuclear lysate); 13% on EGLN1 (Jurkat nuclear lysate); 124% on EGLN2 (HL-60 nuclear lysate); 123% at EGLN2 (Jurkat nuclear lysate); 75% at EGLN2 (K-562 nuclear lysate); 279% at P4HA2 (HL-60 nuclear lysate). The remaining binding at 100 µM at P4HA2 (Jurkat nuclear lysate) stood at 136%; on P4HA2 (K-562 nuclear lysate), 28%; on TMLHE (HL-60 nuclear lysate) it was 104%; at TMLHE (Jurkat nuclear lysate), 49%; at TMLHE (K-562 nuclear lysate), 50%; at ALKBH7 (HL-60 nuclear lysate), 82%. Further, the remaining binding at 100 µM stood at 55% on ALKBH7 (Jurkat nuclear lysate); 54% on ALKBH7 (K-562 nuclear lysate); 126% on LEPRE1 (HL-60 nuclear lysate); 90% on LEPRE1 (Jurkat nuclear lysate); 100% at LEPRE1 (K-562 nuclear lysate); 50% on OGFOD1 (HL-60 nuclear lysate). Moreover, the remaining binding at 100 µM on OGFOD1 (Jurkat nuclear lysate) worked out at 30%; at OGFOD1 (K-562 nuclear lysate), 19%; at PLOD2 (HL-60 nuclear lysate) it was 86%; at PLOD2 (Jurkat nuclear lysate) it was 109%; on PLOD2 (K-562 nuclear lysate), 54%.

For the origin of these results see EP2505659A1, “Methods for the identification of dioxygenase interacting molecules and for the purification of dioxygenase proteins” (CELLZOME AG, priority 2011, dated 2012).
